Legend:
[1] = test system: Puccinia recondita f. sp. tritici; test: Puccinia recondita f. sp. tritici / wheat / leaf disc curative (brown rust); format: in vivo; settings: foliar, 200 ppm in the applied formulation, wheat leaf segments cv. Kanzler, applied 1 day after inoculation, 6 to 8 days after application, read-out: disease control compared to untreated control leaf disks
Experimental: Leaf disks or leaf segments of various plant species are cut from plants grown in a greenhouse. The cut leaf disks or segments are placed in multiwell plates (24-well format) onto water agar. The leaf disks are sprayed with a test solution before (preventative) or after (curative) inoculation. Compounds to be tested are prepared as DMSO solutions (max. 10 mg/ml) which are diluted to the appropriate concentration with 0.025% Tween20 just before spraying. The inoculated leaf disks or segments are incubated under defined conditions (temperature, relative humidity, light, etc.) according to the respective test system. A single evaluation of disease level is carried out 3 to 14 days after inoculation, depending on the pathosystem. Percent disease control relative to the untreated check leaf disks or segments is then calculated.
Wheat leaf segments cv. Kanzler are placed on agar in multiwell plates (24-well format). The leaf segments are then inoculated with a spore suspension of the fungus. Plates were stored in darkness at 19° C. and 75% relative humidity. The formulated test compound diluted in water was applied 1 day after inoculation. The leaf segments were incubated at 19° C. and 75% relative humidity under a light regime of 12 hours light/12 hours darkness in a climate cabinet and the activity of a compound was assessed as percent disease control compared to untreated when an appropriate level of disease damage appears in untreated check leaf segments (6 to 8 days after application).
The following compounds at 200 ppm in the applied formulation give at least 80% disease control in this test when compared to untreated control leaf disks under the same conditions, which show extensive disease development.

[2] = test system: Glomerella laqenarium (Colletotrichum laqenarium); test: Glomerella laqenarium (Colletotrichum laqenarium) liquid culture / cucumber / preventative (anthracnose); format: cell-based; settings: 20 ppm in the applied formulation, liquid culture in PDB, 24° C., 3 to 4 days after application, read-out: disease control compared to untreated control (inhibition of growth, photometric)
Experimental: Mycelia fragments or conidia suspensions of a fungus prepared either freshly from liquid cultures of the fungus or from cryogenic storage, are directly mixed into nutrient broth. DMSO solutions of the test compound (max. 10 mg/ml) are diluted with 0.025% Tween20 by a factor of 50 and 10 μl of this solution is pipetted into a microtiter plate (96-well format). The nutrient broth containing the fungal spores/mycelia fragments is then added to give an end concentration of the tested compound. The test plates are incubated in the dark at 24° C. and 96% relative humidity. The inhibition of fungal growth is determined photometrically after 2 to 7 days, depending on the pathosystem, and percent antifungal activity relative to the untreated check is calculated.
Conidia of the fungus from cryogenic storage are directly mixed into nutrient broth (PDB—potato dextrose broth). After placing a (DMSO) solution of test compound into a microtiter plate (96-well format), the nutrient broth containing the fungal spores is added. The test plates are incubated at 24° C. and the inhibition of growth is measured photometrically 3 to 4 days after application.
The following compounds at 20 ppm in the applied formulation give at least 80% disease control in this test when compared to untreated control under the same conditions, which show extensive disease development.

Row | melting point | Structure (SMILES) | pest or weed control at 200 ppm [1] | inhibition at 20 ppm [2]
1 |  | O=C(Nc1ccc(-c2noc(C(F)(F)F)n2)cc1F)C1CCOC1 (stereo not drawn) [Compound 1.7, N-[2-fluoro-4-[5-(trifluoromethyl)-1,2,4-oxadiazol-3-yl]phenyl]tetrahydrofuran-3-carboxamide] | ≥ 80% | ≥ 80%
2 |  | Cc1cc(-c2noc(C(F)(F)F)n2)ccc1NC(=O)C1CCOC1 (stereo not drawn) [Compound 1.16, N-[2-methyl-4-[5-(trifluoromethyl)-1,2,4-oxadiazol-3-yl]phenyl]tetrahydrofuran-3-carboxamide] |  | ≥ 80%
3 |  | O=C(Nc1ccc(-c2noc(C(F)(F)F)n2)cc1F)C1CCCO1 (stereo not drawn) [Compound 1.11, N-[2-fluoro-4-[5-(trifluoromethyl)-1,2,4-oxadiazol-3-yl]phenyl]tetrahydrofuran-2-carboxamide] |  | ≥ 80%
4 | 160 to 162 °C | O=C(Nc1ccc(-c2noc(C(F)(F)F)n2)cc1F)C1CC1 [Compound 1.3, N-[2-fluoro-4-[5-(trifluoromethyl)-1,2,4-oxadiazol-3-yl]phenyl]cyclopropane carboxamide] | ≥ 80% | ≥ 80%
5 |  | Cc1cc(-c2noc(C(F)(F)F)n2)ccc1NC(=O)C1(C)CC1 [Compound 1.19, 1-methyl-N-[2-methyl-4-[5-(trifluoromethyl)-1,2,4-oxadiazol-3-yl]phenyl]cyclopropane carboxamide] | ≥ 80% | ≥ 80%
6 |  | N#CC1(C(=O)Nc2ccc(-c3noc(C(F)(F)F)n3)cc2F)CC1 [Compound 1.12, 1-cyano-N-[2-fluoro-4-[5-(trifluoromethyl)-1,2,4-oxadiazol-3-yl]phenyl]cyclopropane carboxamide] | ≥ 80% | ≥ 80%
7 | 166 to 175 °C | O=C(Nc1ccc(-c2noc(C(F)(F)F)n2)cc1F)c1ccccc1 [Compound 1.4, N-[2-fluoro-4-[5-(trifluoromethyl)-1,2,4-oxadiazol-3-yl]phenyl]benzamide] |  | 
8 |  | CC1CC1C(=O)Nc1ccc(-c2noc(C(F)(F)F)n2)cc1F (stereo not drawn) [Compound 1.9, N-[2-fluoro-4-[5-(trifluoromethyl)-1,2,4-oxadiazol-3-yl]phenyl]-2-methyl-cyclopropanecarboxamide] |  | ≥ 80%
9 |  | O=C(Nc1ccc(-c2noc(C(F)(F)F)n2)cc1F)C1CC1(F)F (stereo not drawn) [Compound 1.5, 2,2-difluoro-N-[2-fluoro-4-[5-(trifluoromethyl)-1,2,4-oxadiazol-3-yl]phenyl]cyclopropane carboxamide] | ≥ 80% | ≥ 80%
10 | 173 to 176 °C | Cc1cc(-c2noc(C(F)(F)F)n2)ccc1NC(=O)c1ccccc1 [Compound 1.2, N-[2-methyl-4-[5-(trifluoromethyl)-1,2,4-oxadiazol-3-yl]phenyl]benzamide] |  | 
11 |  | Cc1cc(-c2noc(C(F)(F)F)n2)ccc1NC(=O)C1CCCO1 (stereo not drawn) [Compound 1.20, N-[2-methyl-4-[5-(trifluoromethyl)-1,2,4-oxadiazol-3-yl]phenyl]tetrahydrofuran-2-carboxamide] | ≥ 80% | ≥ 80%
12 | 185 to 196 °C | Cc1cc(-c2noc(C(F)(F)F)n2)ccc1NC(=O)C1CC1 [Compound 1.1, N-[2-methyl-4-[5-(trifluoromethyl)-1,2,4-oxadiazol-3-yl]phenyl]cyclopropane carboxamide] |  | 
13 |  | CC1(C(=O)Nc2ccc(-c3noc(C(F)(F)F)n3)cc2F)CC1 [Compound 1.10, N-[2-fluoro-4-[5-(trifluoromethyl)-1,2,4-oxadiazol-3-yl]phenyl]-1-methyl-cyclopropanecarboxamide] | ≥ 80% | ≥ 80%
14 |  | O=C(CC1CC1)Nc1ccc(-c2noc(C(F)(F)F)n2)cc1F [Compound 1.13, 2-cyclopropyl-N-[2-fluoro-4-[5-(trifluoromethyl)-1,2,4-oxadiazol-3-yl]phenyl]acetamide] | ≥ 80% | ≥ 80%
15 |  | O=C(Nc1ccc(-c2noc(C(F)(F)F)n2)cc1F)C1CCC1 [Compound 1.8, N-[2-fluoro-4-[5-(trifluoromethyl)-1,2,4-oxadiazol-3-yl]phenyl] cyclobutanecarboxamide] |  | ≥ 80%
